Measurements as given in US20070208040A1, “A2A ADENOSINE RECEPTOR ANTAGONISTS” (priority 2006, published 2007).

Biological target: A2A adenosine receptor (UniProt P29274)
Test: A2A radioligand binding assay (displacement of 3H-MSX-2)
Parameters: species or system human
Settings: displacement of 2 nM 3H-MSX-2 from 15 ug A2A membrane, 23° C., 2 hours
Description: A tritiated adenosine A2A antagonist, 3-(3-hydroxypropyl)-7-methyl-8-(m-methoxystyryl)-1-propargylxanthine, (3H-MSX-2, specific activity: 80 Ci/mmol), was purchased from American Radiolabeled Chemicals, Inc (St. Louis, Mo.). A tritiated adenosine A1 antagonist, 1,3-Dipropyl-8-cyclopentylxanthine ([^3H]DPCPX, specific activity: 120 Ci/mmol) was purchased from Perkin Elmer (Boston, Mass.). A tritiated adenosine A2a antagonist, 4-(2-[7-amino-2-(2-furyl)[1,2,4]triazolo[2,3-a][1,3,5]triazin-5-ylamino]ethyl)phenol ([^3H]ZM241385 specific activity: 27.4 Ci/mmol) was purchased from American Radiolabeled Chemicals, Inc (St. Louis, Mo.). Adenosine Deaminase (ADA) was purchased from Roche Molecular Biochemicals (Nutley, N.J.). GTP was purchased from Sigma. Concentrated stock solution (10 mM) of compounds was dissolved in dimethylsulfoxide (DMSO), stored at −20° C., and diluted in Tris-EDTA buffer (50 mM Tris and 1 mM EDTA, 10 mM MgCl2, pH 7.4) for use in experiments. The final content of dimethylsulfoxide in Tris-EDTA buffer during experiments was not more than 1%. Male Sprague Dawley rats, weighted 250-400 g, 8-10 weeks old, were purchased from Charles River Labs (Wilmington, Mass.).
HEK293 (Human Embryonic Kidney 293) cells stably expressing human A2A adenosine receptor or human A2B adenosine receptor were maintained in DMEM supplemented with 10% fetal bovine serum, 2 mM L-glutamine, 100 IU/ml penicillin, 50 μg/ml streptomycin and 2 μg/ml puromycin. CHO (Chinese Hamster Ovary) cells stably expressing human A1 adenosine receptor or human A3 adenosine receptor were maintained in F12K medium supplemented with 10% fetal bovine serum, 2 mM L-glutamine, 100 IU penicillin, 50 μg streptomycin and 8 μg/ml puromycin. PC12 (rat pheochromocytoma) cells were cultured in F12K medium supplemented with 10% horse serum and 2.5% fetal bovine serum, 2 mM L-glutamine, 100 IU/ml penicillin, and 50 μg/ml streptomycin. All cells were maintained at 37° C. in a humidified 5% CO2/95% air incubator and recultivated 2 times per week.
Cultured cells in 150 mm^2 dishes were washed once with PBS, detached by scrapping, collected with buffer A (10 mM HEPES, 10 mM EDTA, pH 7.4) containing protease inhibitor cocktail. Cells were then homogenized by a handheld homogenizer at a speed of 4.5 for 1 min. The homogenate was centrifuged by a Beckman ultracentrifuge at a speed of 29,000 × g for 15 min. The pellets were resuspended in buffer HE (10 mM HEPES, 1 mM EDTA, pH 7.4, with protease inhibitor cocktail), centrifuged again at 29,000 × g for 15 min. The crude membrane was resuspended using buffer HE, and protein concentration was measured by the method of Lowery with BSA as standard. Similar procedures were used for membrane preparation for fresh rat tissues. All experimental procedures were done at 4° C. Membranes were aliquot and kept at −80° C.
The binding assays utilized 15 ug of A2A membrane (human recombinant A2A membrane, rat striatal membrane, or PC 12 cell membrane) that had been treated with adenosine deaminase and 50 mM Tris-EDTA buffer (pH=7.4) followed by mixing 2 μL of serially diluted DMSO stock solution of the compounds of this invention at concentrations ranging from 10 μM to 0.1 nM or the control received 2 μL of DMSO alone, then the tritiated antagonist 3-(3-hydroxypropyl)-7-methyl-8-(m-methoxystyryl)-1-propargylxanthine (^3H-MSX-2) in Tris-EDTA buffer (50 mM Tris, 1 mM EDTA, 10 mM MgCl2, pH of 7.4) was added to achieve a final concentration of 2 nM. After incubation at 23° C. for 2 hours, the solutions were filtered using a membrane harvester with multiple washing of the membranes (3×). The filter plates were counted in scintillation cocktail affording the amount of displacement ^3H-MSX-2 by the competitive binding compositions of this invention. Radioligand binding data was analyzed using GraphPad Prism version 4.0 (San Diego, Calif.). […]

Ki [nM] | SMILES
230 | CCn1c(=O)[nH]c2scc(-c3ccc(C)o3)c2c1=O [XXI, 3-ethyl-5-(5-methyl(2-furyl))-1,3-dihydrothiopheno[2,3-d]pyrimidine-2,4-dione]
752 | CCn1c(=O)[nH]c2sc(-c3cnn(Cc4ccccc4)c3)c(C)c2c1=O [XVIII, 3-ethyl-5-methyl-6-[1-benzylpyrazol-4-yl]-1,3-dihydrothiopheno[2,3-d]pyrimidine-2,4-dione]
569 | CCCn1c(=O)[nH]c2sc(C(=O)O)c(C)c2c1=O [XLI, 5-methyl-2,4-dioxo-3-propyl-1,3-dihydrothiopheno[2,3-d]pyrimidine-6-carboxylic acid]
88 | CCn1c(=O)[nH]c2sc(-c3ccoc3)c(C)c2c1=O [II, 3-ethyl-6-(3-furyl)-5-methyl-1,3-dihydrothiopheno[2,3-d]pyrimidine-2,4-dione]
450 | Cc1c(C2=NC[C@@H](C)O2)sc2c1c(=O)n(CC(C)C)c(=O)n2C [LIX, 6-((5R)-5-methyl(1,3-oxazolin-2-yl))-1,5-dimethyl-3-(2-methylpropyl)-1,3-dihydrothiopheno[2,3-d]pyrimidine-2,4-dione]
110 | Cc1c(-c2ccco2)sc2[nH]c(=O)n(C)c(=O)c12 [XXXIV, 6-(2-furyl)-3,5-dimethyl-1,3-dihydrothiopheno[2,3-d]pyrimidine-2,4-dione]
274 | CNC(=O)c1sc2[nH]c(=O)n(C)c(=O)c2c1C [VIII, (3,5-dimethyl-2,4-dioxo(1,3-dihydrothiopheno[2,3-d]pyrimidin-6-yl))-n-methylcarboxamide]
720 | C#CCn1c(=O)c2c(C)csc2n(C)c1=O [LII, 1,5-dimethyl-3-prop-2-ynyl-1,3-dihydrothiopheno[2,3-d]pyrimidine-2,4-dione]
485 | CCn1c(=O)c2c(C)c(-c3ccccn3)sc2n(C)c1=O [L, 3-ethyl-1,5-dimethyl-6-(2-pyridyl)-1,3-dihydrothiopheno[2,3-d]pyrimidine-2,4-dione]
488 | CCn1c(=O)c2c(C)c(-c3ccc[nH]3)sc2n(C)c1=O [XLIX, 3-ethyl-1,5-dimethyl-6-pyrrol-2-yl-1,3-dihydrothiopheno[2,3-d]pyrimidine-2,4-dione]
167 | CCn1c(=O)[nH]c2sc(-c3nccs3)c(C)c2c1=O [XXXVII, 3-ethyl-5-methyl-6-(1,3-thiazol-2-yl)-1,3-dihydrothiopheno[2,3-d]pyrimidine-2,4-dione]
457 | CCn1c(=O)n(CC(C)C)c(=O)c2c(C)c(-c3ccco3)sc21 [XLIV, 1-ethyl-6-(2-furyl)-5-methyl-3-(2-methylpropyl)-1,3-dihydrothiopheno[2,3-d]pyrimidine-2,4-dione]
75 | Cc1c(-c2ncco2)sc2[nH]c(=O)n(CC(C)C)c(=O)c12 [XXIX, 5-methyl-3-(2-methylpropyl)-6-(1,3-oxazol-2-yl)-1,3-dihydrothiopheno[2,3-d]pyrimidine-2,4-dione]
715 | CCOC(=O)c1sc2[nH]c(=O)n(C)c(=O)c2c1C [XVII, ethyl 3,5-dimethyl-2,4-dioxo-1,3-dihydrothiopheno[2,3-d]pyrimidine-6-carboxylate]
48 | Cc1c(C2=N[C@@H](C)CO2)sc2[nH]c(=O)n(CC(C)C)c(=O)c12 [LI, 6-((4S)-4-methyl(1,3-oxazolin-2-yl))-5-methyl-3-(2-methylpropyl)-1,3-dihydrothiopheno[2,3-d]pyrimidine-2,4-dione]
96 | Cc1c(-c2cocn2)sc2[nH]c(=O)n(CC(C)C)c(=O)c12 [XXIII, 5-methyl-3-(2-methylpropyl)-6-(1,3-oxazol-4-yl)-1,3-dihydrothiopheno[2,3-d]pyrimidine-2,4-dione]
304 | Cc1c(C2=N[C@@H](C)CO2)sc2c1c(=O)n(CC(C)C)c(=O)n2C [LIII, 6-((4S)-4-methyl(1,3-oxazolin-2-yl))-1,5-dimethyl-3-(2-methylpropyl)-1,3-dihydrothiopheno[2,3-d]pyrimidine-2,4-dione]
347 | Cc1c(-c2ncco2)sc2c1c(=O)n(CC(C)C)c(=O)n2C [XL, 1,5-dimethyl-3-(2-methylpropyl)-6-(1,3-oxazol-2-yl)-1,3-dihydrothiopheno[2,3-d]pyrimidine-2,4-dione]
239 | Cc1c(C2=NC[C@@H](C)O2)sc2[nH]c(=O)n(CC(C)C)c(=O)c12 [LVII, 6-((5R)-5-methyl(1,3-oxazolin-2-yl))-5-methyl-3-(2-methylpropyl)-1,3-dihydrothiopheno[2,3-d]pyrimidine-2,4-dione]
195 | Cc1c(-c2cccs2)sc2[nH]c(=O)n(CC3CC3)c(=O)c12 [XXXV, 3-(cyclopropylmethyl)-5-methyl-6-(2-thienyl)-1,3-dihydrothiopheno[2,3-d]pyrimidine-2,4-dione]
119 | CC[C@H]1COC(c2sc3c(c2C)c(=O)n(CC(C)C)c(=O)n3C)=N1 [LVIII, 6-((4S)-4-ethyl(1,3-oxazolin-2-yl))-1,5-dimethyl-3-(2-methylpropyl)-1,3-dihydrothiopheno[2,3-d]pyrimidine-2,4-dione]
93 | CCn1c(=O)[nH]c2sc(C3=N[C@@H](C)CO3)c(C)c2c1=O [XLIII, 6-((4S)-4-methyl(1,3-oxazolin-2-yl))-3-ethyl-5-methyl-1,3-dihydrothiopheno[2,3-d]pyrimidine-2,4-dione]
165 | Cc1c(-c2cocn2)sc2c1c(=O)n(CC(C)C)c(=O)n2C [XXIV, 1,5-dimethyl-3-(2-propylmethyl)-6-(1,3-oxazol-4-yl)-1,3-dihydrothiopheno[1,3-d]pyrimidine-2,4-dione]
49 | C#CCn1c(=O)c2c(C)c(C(=O)OCC)sc2n(C)c1=O [XXVI, ethyl 1,5-dimethyl-2,4-dioxo-3-prop-2-ynyl-1,3-dihydrothiopheno[2,3-d]pyrimidine-6-carboxylate]
